Results published in ChEMBL document CHEMBL3872283, “Design, Synthesis, and Evaluation of Novel and Selective G-protein Coupled Receptor 120 (GPR120) Spirocyclic Agonists” (ACS Med Chem Lett, 2017).
pEC50: −log10 of the molar value. Calls of active or inactive are those of the source. The calls are words filed in the database; no cut-off is given here.

How the values were obtained:
[1] = Plasma clearance in rhesus monkey at 0.5 mg/kg, iv or 1 mg/kg, po by LC/MS/MS analysis; format: ADME, organism-based, Macaca mulatta
[2] = MRT in rat at 1 mg/kg, iv or 2 mg/kg, po by LC/MS/MS analysis; format: ADME, organism-based; settings: in vivo
[3] = target: Free fatty acid receptor 1 (Homo sapiens, UniProt O14842); experiment: Agonist activity at human GPR40 expressed in HEK293 cells assessed as induction of IP1 accumulation after 60 mins by HTRF assay; format: functional, cell-based
[4] = Protein binding in dog plasma at 1 mg/kg, iv or 2 mg/kg, po by LC/MS/MS analysis; format: ADME, organism-based, Canis lupus familiaris; settings: read-out: PPB (converted)
[5] = Half life in rhesus monkey at 0.5 mg/kg, iv or 1 mg/kg, po by LC/MS/MS analysis; format: ADME, organism-based, Macaca mulatta; settings: in vivo
[6] = Protein binding in mouse plasma at 2 mg/kg, iv or 10 mg/kg, po by LC/MS/MS analysis; format: ADME, organism-based; settings: read-out: PPB (converted)
[7] = target: T1, Peroxisome proliferator-activated receptor gamma (Homo sapiens) (UniProt P37231); experiment: Displacement of [3H]Rosiglitazone from recombinant human PPARgamma expressed in insect cells
T1 sequence (whole entry): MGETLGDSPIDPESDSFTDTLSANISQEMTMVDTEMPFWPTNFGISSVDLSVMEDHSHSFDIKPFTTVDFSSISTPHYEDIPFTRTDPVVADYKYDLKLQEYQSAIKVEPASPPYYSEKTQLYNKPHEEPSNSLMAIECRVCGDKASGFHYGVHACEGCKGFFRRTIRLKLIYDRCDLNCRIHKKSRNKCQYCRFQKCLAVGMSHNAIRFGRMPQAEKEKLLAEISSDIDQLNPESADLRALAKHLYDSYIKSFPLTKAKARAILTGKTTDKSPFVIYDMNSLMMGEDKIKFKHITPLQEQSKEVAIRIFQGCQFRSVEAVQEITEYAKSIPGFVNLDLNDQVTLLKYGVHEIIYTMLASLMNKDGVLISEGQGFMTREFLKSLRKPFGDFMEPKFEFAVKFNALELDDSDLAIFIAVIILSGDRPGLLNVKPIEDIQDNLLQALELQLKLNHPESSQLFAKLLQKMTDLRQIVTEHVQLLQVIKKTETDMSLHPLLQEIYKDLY

[8] = target: Cytochrome P450 2C9 (Homo sapiens, UniProt P11712); experiment: Inhibition of human CYP2C9; format: ADME
[9] = test system: Mus musculus; experiment: Toxicity in diet-induced obese mouse assessed as change in body weight at 30 mg/kg, po qd administered daily via gavage for 28 days; format: organism-based; settings: in vivo, 672 h
[10] = Half life in dog at 1 mg/kg, iv or 2 mg/kg, po by LC/MS/MS analysis; format: ADME, organism-based, Canis lupus familiaris; settings: in vivo
[11] = target: T2, Free fatty acid receptor 4 (Mus musculus, UniProt Q7TMA4); experiment: Agonist activity at mouse GPR120 expressed in CHOK1 cells assessed as induction of IP1 accumulation after 60 mins by HTRF assay; format: functional, cell-based, CHO-K1
T2 sequence (Q7TMA4 whole entry): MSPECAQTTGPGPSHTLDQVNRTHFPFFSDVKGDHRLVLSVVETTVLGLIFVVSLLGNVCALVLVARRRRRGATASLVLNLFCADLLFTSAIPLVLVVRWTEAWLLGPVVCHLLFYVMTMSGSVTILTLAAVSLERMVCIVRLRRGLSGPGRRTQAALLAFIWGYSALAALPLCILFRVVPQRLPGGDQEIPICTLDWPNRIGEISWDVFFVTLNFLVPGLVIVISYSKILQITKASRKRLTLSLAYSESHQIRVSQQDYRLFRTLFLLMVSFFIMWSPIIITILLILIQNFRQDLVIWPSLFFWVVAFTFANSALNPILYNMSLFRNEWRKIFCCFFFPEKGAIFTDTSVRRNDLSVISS

[12] = MRT in rhesus monkey at 0.5 mg/kg, iv or 1 mg/kg, po by LC/MS/MS analysis; format: ADME, organism-based, Macaca mulatta; settings: in vivo
[13] = test system: Mus musculus; experiment: Antidiabetic activity in diet-induced obese mouse assessed as reduction in homeostatic model assessment of insulin resistance at 30 mg/kg, po qd administered daily via gavage for 14 days measured on day 14 post dose; format: functional, organism-based
[14] = Volume of distribution at steady state in dog at 1 mg/kg, iv or 2 mg/kg, po by LC/MS/MS analysis; format: ADME, organism-based, Canis lupus familiaris; settings: in vivo, read-out: Vdss
[15] = Antidiabetic activity in C57BL/6 mouse at 30 mg/kg, po administered 60 mins via gavage prior to dextrose challenge measured up to 120 mins post dextrose challenge by oGTT; format: functional, organism-based
[16] = target: Sodium channel protein type 5 subunit alpha (Homo sapiens, UniProt Q14524); experiment: Inhibition of Nav1.5 (unknown origin)
[17] = Plasma clearance in dog at 1 mg/kg, iv or 2 mg/kg, po by LC/MS/MS analysis; format: ADME, organism-based, Canis lupus familiaris
[18] = Oral bioavailability in rat at 2 mg/kg by LC/MS/MS analysis; format: ADME, organism-based; settings: in vivo
[19] = Protein binding in rhesus monkey plasma at 0.5 mg/kg, iv or 1 mg/kg, po by LC/MS/MS analysis; format: ADME, organism-based, Macaca mulatta; settings: read-out: PPB (converted)
[20] = AUC in rhesus monkey at 0.5 mg/kg, iv by LC/MS/MS analysis; format: ADME, organism-based, Macaca mulatta; settings: in vivo
[21] = target: Voltage-dependent L-type calcium channel subunit alpha-1C (Homo sapiens, UniProt Q13936); experiment: Inhibition of Cav1.2 (unknown origin)
[22] = target: Voltage-gated inwardly rectifying potassium channel KCNH2 (Homo sapiens, UniProt Q12809); experiment: Displacement of [35S]-MK499 from human ERG expressed in HEK293 cell membranes
[23] = Antidiabetic activity in C57BL/6 mouse administered 60 mins via oral gavage prior to dextrose challenge measured up to 120 mins post dextrose challenge by oGTT; format: functional
[24] = MRT in dog at 1 mg/kg, iv or 2 mg/kg, po by LC/MS/MS analysis; format: ADME, organism-based, Canis lupus familiaris; settings: in vivo
[25] = Half life in rat at 1 mg/kg, iv or 2 mg/kg, po by LC/MS/MS analysis; format: ADME, organism-based; settings: in vivo
[26] = Oral bioavailability in mouse at 10 mg/kg by LC/MS/MS analysis; format: ADME, organism-based; settings: in vivo

Chain of Sodium channel protein type 5 subunit alpha (Q14524 whole entry): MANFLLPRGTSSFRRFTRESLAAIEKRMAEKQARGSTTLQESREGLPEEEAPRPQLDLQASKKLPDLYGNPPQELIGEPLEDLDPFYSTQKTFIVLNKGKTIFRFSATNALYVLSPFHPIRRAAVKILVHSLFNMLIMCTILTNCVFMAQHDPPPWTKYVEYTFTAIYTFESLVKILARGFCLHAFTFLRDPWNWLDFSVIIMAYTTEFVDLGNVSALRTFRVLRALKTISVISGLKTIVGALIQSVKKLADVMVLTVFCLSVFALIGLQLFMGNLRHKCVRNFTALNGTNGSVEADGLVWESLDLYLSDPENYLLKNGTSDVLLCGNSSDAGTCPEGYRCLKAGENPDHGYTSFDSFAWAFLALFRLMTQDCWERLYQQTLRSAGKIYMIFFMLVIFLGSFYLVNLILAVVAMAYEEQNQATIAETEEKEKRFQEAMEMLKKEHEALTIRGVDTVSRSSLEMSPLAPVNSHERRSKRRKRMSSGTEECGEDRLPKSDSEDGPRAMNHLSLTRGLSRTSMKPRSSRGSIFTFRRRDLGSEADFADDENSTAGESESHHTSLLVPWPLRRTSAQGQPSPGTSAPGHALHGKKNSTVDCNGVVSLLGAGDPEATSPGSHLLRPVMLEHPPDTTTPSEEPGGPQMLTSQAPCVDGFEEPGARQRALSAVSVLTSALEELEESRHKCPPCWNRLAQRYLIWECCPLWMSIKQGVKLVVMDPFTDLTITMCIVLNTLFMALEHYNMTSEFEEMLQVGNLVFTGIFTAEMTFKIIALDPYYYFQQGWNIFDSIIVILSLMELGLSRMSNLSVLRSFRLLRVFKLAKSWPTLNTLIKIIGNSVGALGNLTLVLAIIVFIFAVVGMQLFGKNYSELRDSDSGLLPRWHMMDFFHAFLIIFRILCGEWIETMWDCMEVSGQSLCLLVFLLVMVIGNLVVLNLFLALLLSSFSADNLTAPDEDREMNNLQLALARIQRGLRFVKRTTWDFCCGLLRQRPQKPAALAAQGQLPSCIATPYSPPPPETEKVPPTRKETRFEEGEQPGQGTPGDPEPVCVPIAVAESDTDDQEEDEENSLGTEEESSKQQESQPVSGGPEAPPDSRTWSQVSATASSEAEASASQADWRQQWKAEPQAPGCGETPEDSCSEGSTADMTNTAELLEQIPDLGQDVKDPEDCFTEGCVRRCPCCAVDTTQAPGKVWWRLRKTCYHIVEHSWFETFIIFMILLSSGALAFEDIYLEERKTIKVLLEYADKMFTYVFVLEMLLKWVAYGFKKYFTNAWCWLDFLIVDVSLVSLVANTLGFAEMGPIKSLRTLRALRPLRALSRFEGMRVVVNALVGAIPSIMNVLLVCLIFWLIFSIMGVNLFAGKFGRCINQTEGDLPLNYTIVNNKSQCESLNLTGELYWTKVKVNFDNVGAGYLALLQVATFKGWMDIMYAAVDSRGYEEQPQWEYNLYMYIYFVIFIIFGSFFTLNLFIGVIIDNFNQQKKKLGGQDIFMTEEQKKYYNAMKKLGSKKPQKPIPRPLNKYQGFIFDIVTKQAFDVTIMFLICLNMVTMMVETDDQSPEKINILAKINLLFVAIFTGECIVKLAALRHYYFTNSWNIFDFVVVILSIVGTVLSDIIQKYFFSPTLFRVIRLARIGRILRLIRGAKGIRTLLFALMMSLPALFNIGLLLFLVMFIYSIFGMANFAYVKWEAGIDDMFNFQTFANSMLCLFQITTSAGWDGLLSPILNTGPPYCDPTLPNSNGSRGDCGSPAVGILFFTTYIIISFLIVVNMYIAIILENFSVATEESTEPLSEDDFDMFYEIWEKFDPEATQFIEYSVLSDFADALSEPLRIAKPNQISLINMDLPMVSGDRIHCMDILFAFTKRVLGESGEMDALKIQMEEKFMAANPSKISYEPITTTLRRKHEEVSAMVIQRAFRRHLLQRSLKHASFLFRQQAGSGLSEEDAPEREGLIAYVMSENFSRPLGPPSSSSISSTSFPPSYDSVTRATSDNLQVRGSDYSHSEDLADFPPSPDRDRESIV
Chain of Cytochrome P450 2C9 (P11712 whole entry): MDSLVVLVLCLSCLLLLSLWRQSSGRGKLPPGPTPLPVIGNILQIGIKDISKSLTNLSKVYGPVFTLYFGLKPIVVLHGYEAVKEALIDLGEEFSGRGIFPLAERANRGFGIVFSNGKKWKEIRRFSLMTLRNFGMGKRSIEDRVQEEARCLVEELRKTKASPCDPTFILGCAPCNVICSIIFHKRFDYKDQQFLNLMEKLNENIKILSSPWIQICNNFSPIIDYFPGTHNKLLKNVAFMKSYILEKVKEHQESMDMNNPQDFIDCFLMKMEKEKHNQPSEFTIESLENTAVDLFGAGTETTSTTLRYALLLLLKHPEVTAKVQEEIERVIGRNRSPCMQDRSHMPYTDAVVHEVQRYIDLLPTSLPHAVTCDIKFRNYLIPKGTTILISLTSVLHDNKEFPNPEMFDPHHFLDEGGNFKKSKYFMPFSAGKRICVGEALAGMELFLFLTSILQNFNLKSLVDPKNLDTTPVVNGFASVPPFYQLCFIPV
Chain of Free fatty acid receptor 1 (O14842 whole entry): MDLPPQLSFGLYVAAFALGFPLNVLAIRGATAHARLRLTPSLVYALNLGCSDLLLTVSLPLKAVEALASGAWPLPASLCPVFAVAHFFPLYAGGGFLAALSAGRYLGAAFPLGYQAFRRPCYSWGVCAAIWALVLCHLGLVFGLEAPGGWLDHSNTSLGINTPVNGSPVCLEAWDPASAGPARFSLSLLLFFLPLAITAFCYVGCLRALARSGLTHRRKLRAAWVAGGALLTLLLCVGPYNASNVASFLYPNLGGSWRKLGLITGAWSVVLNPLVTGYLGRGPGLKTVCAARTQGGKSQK
Chain of Voltage-gated inwardly rectifying potassium channel KCNH2 (Q12809 whole entry): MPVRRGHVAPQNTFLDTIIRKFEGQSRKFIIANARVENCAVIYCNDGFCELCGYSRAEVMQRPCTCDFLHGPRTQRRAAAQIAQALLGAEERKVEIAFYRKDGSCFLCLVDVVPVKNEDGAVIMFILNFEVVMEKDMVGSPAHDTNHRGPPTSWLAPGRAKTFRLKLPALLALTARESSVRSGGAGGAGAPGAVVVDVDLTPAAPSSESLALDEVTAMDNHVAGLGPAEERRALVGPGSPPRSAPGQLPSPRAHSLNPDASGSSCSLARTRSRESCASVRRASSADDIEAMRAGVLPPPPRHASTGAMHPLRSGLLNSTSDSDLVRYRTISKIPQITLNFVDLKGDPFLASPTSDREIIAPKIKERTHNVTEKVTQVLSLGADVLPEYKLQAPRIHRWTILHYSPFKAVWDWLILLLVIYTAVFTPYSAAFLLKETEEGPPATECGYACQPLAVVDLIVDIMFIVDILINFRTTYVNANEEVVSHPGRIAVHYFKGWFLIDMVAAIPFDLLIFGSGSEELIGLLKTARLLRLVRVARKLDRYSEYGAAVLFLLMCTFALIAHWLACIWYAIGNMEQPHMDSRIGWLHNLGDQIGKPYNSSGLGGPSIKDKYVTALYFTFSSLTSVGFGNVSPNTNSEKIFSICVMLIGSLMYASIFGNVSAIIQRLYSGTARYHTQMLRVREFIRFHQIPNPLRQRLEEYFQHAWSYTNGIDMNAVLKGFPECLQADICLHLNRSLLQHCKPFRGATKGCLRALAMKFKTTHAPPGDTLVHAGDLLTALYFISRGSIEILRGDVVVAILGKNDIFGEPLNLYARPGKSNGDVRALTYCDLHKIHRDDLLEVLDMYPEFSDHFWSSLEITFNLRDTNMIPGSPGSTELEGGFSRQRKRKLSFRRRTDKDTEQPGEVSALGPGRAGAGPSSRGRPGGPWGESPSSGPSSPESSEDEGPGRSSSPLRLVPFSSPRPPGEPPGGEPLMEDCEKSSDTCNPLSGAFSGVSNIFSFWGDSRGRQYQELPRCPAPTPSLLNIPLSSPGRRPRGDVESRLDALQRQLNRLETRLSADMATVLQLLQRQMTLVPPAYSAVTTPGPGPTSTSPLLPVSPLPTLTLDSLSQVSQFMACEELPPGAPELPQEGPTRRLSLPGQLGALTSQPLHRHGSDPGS

clearance [1]: 2.7 mL/min/kg
MRT [2]: 3 h
pEC50 [3]: < 5.00
fraction unbound [4]: 0.0015
half-life [5]: 9.1 h
fraction unbound [6]: 0.0021
INH [7]: > 10 µM
INH [8]: > 48 µM
half-life [10]: 11 h
pEC50 [11]: 7.48
MRT [12]: 10.1 h
Vd [14]: 6.7 L/kg
clearance [17]: 9.8 mL/min/kg
bioavailability [18]: 95%
fraction unbound [19]: 0.0028
AUC [20]: 8.7 µM·h
MRT [24]: 10.5 h
half-life [25]: 1.4 h
bioavailability [26]: 100%
SMILES: O=C(O)CC1CCC2(CC1)CCN(c1cc(OC(F)(F)F)ccc1Cl)CC2
Activity [9]: Non-Toxic
Activity [13]: Active
Activity [15]: Active
INH [16]: 13 µM
INH [21]: 21 µM
INH [22]: > 60 µM
Activity [23]: Dose-dependent effect
